The target of one test is T1, HDAC1 (Homo sapiens, UniProt Q13547).
T1 construct: purchased from BPS Bioscience
The test can be described thus: fluorogenic deacetylase assay, trypsin-coupled AMC release. It counts as biochemical.

The target in a further test is T2, HDAC3 (Homo sapiens, UniProt O15379).
T2 construct: purchased from BPS Bioscience; with Nuclear receptor corepressor 2
Described as above. The format is biochemical.

In a further test the target is T3, HDAC8 (Homo sapiens, UniProt Q9BY41).
T3 sequence (Q9BY41 1-377): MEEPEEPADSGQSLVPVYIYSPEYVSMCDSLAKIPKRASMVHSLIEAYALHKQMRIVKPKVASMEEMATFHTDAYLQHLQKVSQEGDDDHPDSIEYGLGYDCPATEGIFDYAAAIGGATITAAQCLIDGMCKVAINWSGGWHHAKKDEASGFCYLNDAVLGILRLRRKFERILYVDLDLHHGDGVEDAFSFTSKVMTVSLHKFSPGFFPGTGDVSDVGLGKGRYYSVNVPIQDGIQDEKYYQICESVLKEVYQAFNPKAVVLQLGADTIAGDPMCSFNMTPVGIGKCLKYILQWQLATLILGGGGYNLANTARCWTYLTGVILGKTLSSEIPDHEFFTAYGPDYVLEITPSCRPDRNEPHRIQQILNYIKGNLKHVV
The test can be described thus: biochemical. The arrangement: in vitro inhibition of purified HDAC isozymes, dose response. As for the experimental part: (§1) To confirm the ability of NKL54, MC2984 and MC2985 to act as epigenetic drugs, we examined the levels of histone H3 lysine 9 acetylation (H3K9ac) by immunoblot. SAHA triggered an increase in H3K9 acetylation within 15 min of treatment (Figure 1G). […] The increase in H3K9ac in response to MC2985 treatment was very small, almost undetectable. […] Overall, the modulation of H3K9ac and of H3K27ac levels in response to the different compounds confirms the inhibitory potency observed with the KDAC assay in vivo. Finally, we compared the in vitro inhibitory activity of SAHA and of PAOA derivatives against different purified HDACs (NKL54 was chosen as an example). The inhibitory activity of NKL54 was specific to HDAC1/2/3 (Figure 1H). […] The Tanimoto coefficient is reported for all the compounds versus the reference BML-210. *Energy calculated on the re-docked ligand extracted from the 3MU6 complex available from PDB. **Tanimoto similarity index calculated with radius 2 circular Morgan fingerprints ([73]) in a python script ([74]) using the RDKit library ([75]). […] Cell death was scored after 48 h from treatments. […] Cell death was scored after 48 h from treatments. Data are from 3 independent experiments, + S.D. (F) Lys-deacetylase activity as measured from SK-UT-1 cells treated with increasing concentrations of the indicated compounds [1, 5, 10 μM]. […]

The next test concerns the target T4, HDAC6 (Homo sapiens, UniProt Q9UBN7).
T4 sequence (Q9UBN7 1-1215): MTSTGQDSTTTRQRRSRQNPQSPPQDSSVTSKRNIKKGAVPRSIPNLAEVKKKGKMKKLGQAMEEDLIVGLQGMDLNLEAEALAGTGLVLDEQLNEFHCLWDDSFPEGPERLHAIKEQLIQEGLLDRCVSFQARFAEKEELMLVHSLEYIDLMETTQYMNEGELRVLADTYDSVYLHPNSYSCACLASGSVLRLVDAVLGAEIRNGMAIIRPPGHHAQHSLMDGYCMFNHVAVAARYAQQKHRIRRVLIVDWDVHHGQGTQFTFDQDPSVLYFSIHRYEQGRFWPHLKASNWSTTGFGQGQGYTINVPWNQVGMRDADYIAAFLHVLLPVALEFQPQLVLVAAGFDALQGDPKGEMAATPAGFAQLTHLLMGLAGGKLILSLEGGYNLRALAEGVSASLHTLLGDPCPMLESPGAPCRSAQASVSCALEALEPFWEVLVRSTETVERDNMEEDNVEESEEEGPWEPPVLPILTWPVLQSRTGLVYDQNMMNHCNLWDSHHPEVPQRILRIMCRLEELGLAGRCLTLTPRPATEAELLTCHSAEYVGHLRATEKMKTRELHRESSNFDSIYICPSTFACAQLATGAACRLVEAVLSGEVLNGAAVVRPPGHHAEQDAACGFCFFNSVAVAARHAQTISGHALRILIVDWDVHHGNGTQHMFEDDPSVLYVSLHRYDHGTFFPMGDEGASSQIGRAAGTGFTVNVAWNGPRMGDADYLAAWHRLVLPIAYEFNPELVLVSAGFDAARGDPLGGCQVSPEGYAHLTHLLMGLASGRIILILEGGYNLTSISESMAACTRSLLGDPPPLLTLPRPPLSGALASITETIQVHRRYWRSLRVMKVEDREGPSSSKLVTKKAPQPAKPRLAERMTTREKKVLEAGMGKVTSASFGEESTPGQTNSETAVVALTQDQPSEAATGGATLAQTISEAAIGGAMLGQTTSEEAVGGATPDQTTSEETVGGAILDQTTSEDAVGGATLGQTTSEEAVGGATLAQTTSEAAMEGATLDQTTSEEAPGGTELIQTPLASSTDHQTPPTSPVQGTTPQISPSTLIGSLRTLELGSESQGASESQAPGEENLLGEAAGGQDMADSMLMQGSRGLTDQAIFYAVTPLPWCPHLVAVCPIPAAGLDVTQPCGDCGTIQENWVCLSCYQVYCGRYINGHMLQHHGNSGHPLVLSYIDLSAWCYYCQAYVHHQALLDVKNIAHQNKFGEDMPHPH
The test can be described thus: biochemical. On the set-up: in vitro inhibition of purified HDAC isozymes, dose response. As for the experimental part:
as §1

For the next test, the target named is HDAC4 (Homo sapiens, UniProt P56524). The test can be described thus: fluorogenic deacetylase assay, trypsin-coupled AMC release. It counts as biochemical.
Chain of HDAC4 (P56524 648-1057 limits assumed): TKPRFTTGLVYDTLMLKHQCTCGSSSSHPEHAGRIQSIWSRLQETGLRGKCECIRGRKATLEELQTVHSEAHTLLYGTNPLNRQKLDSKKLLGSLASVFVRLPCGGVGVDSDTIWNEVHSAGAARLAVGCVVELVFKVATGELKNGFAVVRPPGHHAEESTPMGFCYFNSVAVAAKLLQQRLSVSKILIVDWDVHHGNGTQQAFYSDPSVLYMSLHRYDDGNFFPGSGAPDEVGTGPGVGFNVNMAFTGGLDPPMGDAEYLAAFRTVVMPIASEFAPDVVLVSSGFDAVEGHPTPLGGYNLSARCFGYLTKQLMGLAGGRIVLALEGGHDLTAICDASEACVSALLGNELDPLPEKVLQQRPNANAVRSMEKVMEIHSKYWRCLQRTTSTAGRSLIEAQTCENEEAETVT
Another test deals with T5, HDAC2 (Homo sapiens, UniProt Q92769).
T5 construct: purchased from BPS Bioscience
T5 sequence (Q92769 whole entry): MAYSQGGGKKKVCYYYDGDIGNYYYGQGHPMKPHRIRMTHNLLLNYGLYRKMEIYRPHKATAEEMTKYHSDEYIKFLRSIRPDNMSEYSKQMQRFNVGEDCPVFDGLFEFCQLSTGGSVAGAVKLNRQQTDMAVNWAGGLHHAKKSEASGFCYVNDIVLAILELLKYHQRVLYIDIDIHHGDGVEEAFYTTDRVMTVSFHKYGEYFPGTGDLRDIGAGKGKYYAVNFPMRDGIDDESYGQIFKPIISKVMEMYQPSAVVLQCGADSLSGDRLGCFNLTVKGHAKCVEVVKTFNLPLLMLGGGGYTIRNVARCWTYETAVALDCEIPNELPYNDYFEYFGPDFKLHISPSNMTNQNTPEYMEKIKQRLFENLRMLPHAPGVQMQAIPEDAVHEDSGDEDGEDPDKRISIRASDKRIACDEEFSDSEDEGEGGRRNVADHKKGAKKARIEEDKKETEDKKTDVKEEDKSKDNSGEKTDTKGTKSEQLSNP
Described as above. It counts as biochemical.

T2 sequence (O15379 whole entry): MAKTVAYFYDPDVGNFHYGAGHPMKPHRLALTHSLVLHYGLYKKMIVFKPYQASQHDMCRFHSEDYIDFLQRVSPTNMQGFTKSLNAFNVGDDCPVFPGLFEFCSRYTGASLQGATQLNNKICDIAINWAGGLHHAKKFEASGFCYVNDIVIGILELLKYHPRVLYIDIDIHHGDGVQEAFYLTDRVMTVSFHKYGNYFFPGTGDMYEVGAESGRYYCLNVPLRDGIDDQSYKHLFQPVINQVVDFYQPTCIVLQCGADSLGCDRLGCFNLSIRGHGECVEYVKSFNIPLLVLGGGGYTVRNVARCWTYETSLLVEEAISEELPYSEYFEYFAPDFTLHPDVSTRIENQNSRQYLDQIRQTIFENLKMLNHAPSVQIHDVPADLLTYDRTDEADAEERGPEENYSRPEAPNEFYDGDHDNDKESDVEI
T1 sequence (Q13547 whole entry): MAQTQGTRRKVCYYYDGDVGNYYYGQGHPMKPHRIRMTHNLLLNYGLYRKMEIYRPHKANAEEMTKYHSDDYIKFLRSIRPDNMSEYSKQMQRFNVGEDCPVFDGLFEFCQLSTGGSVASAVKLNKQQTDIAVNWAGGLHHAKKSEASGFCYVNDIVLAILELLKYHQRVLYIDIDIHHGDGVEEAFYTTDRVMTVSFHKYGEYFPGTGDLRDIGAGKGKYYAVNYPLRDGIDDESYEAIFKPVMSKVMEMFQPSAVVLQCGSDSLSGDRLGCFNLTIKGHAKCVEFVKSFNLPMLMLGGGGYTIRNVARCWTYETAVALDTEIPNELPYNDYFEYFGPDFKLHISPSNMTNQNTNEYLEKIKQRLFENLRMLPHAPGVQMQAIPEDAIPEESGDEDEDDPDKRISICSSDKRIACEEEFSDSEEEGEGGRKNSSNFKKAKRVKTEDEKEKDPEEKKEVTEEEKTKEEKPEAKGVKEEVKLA

By IC50 is commonly meant the concentration that gives 50% inhibition. On to `Nc1ccccc1NC(=O)CCCCCC(=O)Nc1cccc(C(F)(F)F)c1` [NKL54, N-(2-aminophenyl)-N'-[3-(trifluoromethyl)phenyl]heptanediamide], for which the half-inhibitory concentration (IC50) was 84 ± 4 nM against HDAC1; 47 ± 2 nM against HDAC3; above 50000 nM at HDAC8; above 50000 nM on HDAC6; 35000 nM at HDAC4; 176 ± 5 nM against HDAC2.

The record behind these values is article PMC8934631, “Transcriptomic and genomic studies classify NKL54 as a histone deacetylase inhibitor with indirect influence on MEF2-dependent transcription” (Nucleic Acids Research, 2022).
